In patent US20200140556A1, “Methods and Compositions for Dectin-2 Stimulation and Cancer Immunotherapy” (The Board of Trustees of the Leland Stanford Junior …, priority 2017, published 2020):

Assays:
[1] = tested on: TAMs; assay: Stimulation of TAMs by Man2-T785 conjugate in solution; assay type: cell-based; details: stimuli in solution, low / equivalent concentrations
Excerpt: FIG. 21. Data showing synergism when a Dectin-2 agonist (in this case 65% Man2 100-mer) is conjugated to an immunostimulatory agent (in this case TLR7/8 agonist T785), yielding a glycopeptide conjugate (Man2-T785) that strongly stimulates cells in soluble form.
Synergistic immunostimulatory effects were also observed for the conjugate in vitro. […] Also surprising, the attachment of the TLR7/8 agonist changed the behavior of the Man2 glycopeptides in vitro. Whereas Man2 glycopeptides typically require immobilization (e.g., on a plate or cell) to strongly activate TAMs, the results shown were obtained with the stimuli in solution. […] The same is true of the Man2-antibody conjugates described elsewhere in this disclosure. FIG. 22A presents a schematic of the synthesis used to generate the Man2-T785 conjugate used in FIGS. 20 and 21. Synthetic schemes similar to that depicted in FIG. 22A could also be used to prepare conjugates using R848 (FIG. 22C) and other TLR7/8 ligands.

[2] = tested on: PDAC cells; assay: High-mannose glycan display by kifunensine-treated PDAC cells (concavalin A staining, flow cytometry); assay type: cell-based; details: tumor cells treated 3 days
Protocol: (§1) FIG. 5A-5D. Mannosidase inhibition with kifunensine induces high-mannose glycan display and increases tumor cell immunogenicity. (FIG. 5A-5C) PDAC cells were treated with kifunensine for 3 days prior to flow cytometric analysis (FIG. 5A) or coculture with TAM (FIG. 5B, FIG. 5C). (FIG. 5A) PDAC cells stained with the mannose-binding lectin, concavalin A. (FIG. 5B, FIG. 5C) Pretreated PDAC cells were labeled with CSFE and cocultured overnight with TAM to assess cytokine production (FIG. 5B) and tumor cell uptake (FIG. 5C) by Dectin-2-expressing TAM. In some experiments, TAM were treated with Dectin-2-blocking antibodies prior to coculture with PDAC cells (FIG. 5C). *, p<0.05 by Student's t-test. (FIG. 5D) Subcutaneous PDAC tumors from kifunensine-treated mice (i.p., q2d for 7 days) were analyzed by flow cytometry. CD8 T cells (CD8^+CD90^+) among total tumor-infiltrating immune cells are gated.

[3] = tested on: tumor-associated myeloid cells (TAM cells); assay: Coculture of kifunensine-pretreated PDAC cells with TAM (cytokine production, tumor cell uptake); assay type: cell-based; details: overnight coculture; Dectin-2-dependent
Protocol: as §1

[4] = tested on: subcutaneous PDAC tumors; assay: Subcutaneous PDAC tumors from kifunensine-treated mice (flow cytometry); assay type: in vivo; details: i.p., q2d for 7 days
Protocol: as §1

[5] = tested on: Dectin-2 expression by murine monocytes; assay: Dectin-2 expression by murine monocytes cultured with or without GM-CSF (flow cytometry); assay type: cell-based
Protocol: (§2) FIG. 4A-4D. GM-CSF induces Dectin-2 expression and sensitizes tumors to Dectin-2 stimuli. (FIG. 4A-4C) Murine (FIG. 4A, FIG. 4B) and human (FIG. 4C) monocytes were cultured for 24 hr in media supplemented or not with GM-CSF (50 ng/mL) prior to flow cytometric analysis of Dectin-2 expression (FIG. 4A, FIG. 4C) or stimulation with furfurman and analysis of TNFα production (FIG. 4B). […] (FIG. 4D) Mice bearing s.c. CT26 tumors were treated with mannan (i.v.) and/or GM-CSF (i.t.) starting on day 6 post-tumor implantation.
(§3) FIG. 27A-27G. […] (FIG. 27A, FIG. 27B) Dectin-2 expression by mouse (FIG. 27A) or human (FIG. 27B) monocytes cultured for 18 hr with media supplemented or not with GM-CSF. (C-E) TNFα production by mouse monocytes pretreated with 3T3 fibroblast-conditioned medium+/−GM-CSF (FIG. 27C) or LMP tumor-conditioned medium+/−GM-CSF-neutralizing antibodies (FIG. 27D) or by human monocytes pretreated as indicated (FIG. 27E). (FIG. 27F) LMP-bearing mice treated with mannan (12.5 mg/kg i.v. q2d×2 wk) and the indicated anibodies (10 mg/kg i.p. q2d). (FIG. 27G) Heatmap depicting correlations between expression of Dectin-2 and the indicated genes in human cancer tissues. Gene expression data were obtained from TCGA and analyzed to obtain Spearman's correlation coefficients. **, p<0.01; ****, p<0.0001 by Student's t-test (B) or two-way ANOVA with post hoc Tukey's (F) test. […]

[6] = tested on: Dectin-2 expression by human monocytes; assay: Dectin-2 expression by human monocytes cultured with or without GM-CSF (flow cytometry); assay type: cell-based
Protocol: as §2, §3

[7] = tested on: s.c. CT26 tumors; assay: s.c. CT26 tumors treated with mannan (i.v.) and/or GM-CSF (i.t.); assay type: in vivo, mice; details: from day 6
Protocol: as §2
as §2, with “(FIG.” for “FIG. 4A-4D. GM-CSF induces Dectin-2 expression and sensitizes tumors to Dectin-2 stimuli. (FIG.”, “production.” for “production (FIG. 4B).”

[8] = tested on: monocytes; assay: TNFα production by monocytes pretreated with conditioned medium +/- GM-CSF; assay type: cell-based, mouse
Protocol: FIG. 27A-27G. […] (FIG. 27A, FIG. 27B) Dectin-2 expression by mouse (FIG. 27A) or human (FIG. 27B) monocytes cultured for 18 hr with media supplemented or not with GM-CSF. (C-E) TNFα production by mouse monocytes pretreated with 3T3 fibroblast-conditioned medium+/−GM-CSF (FIG. 27C) or LMP tumor-conditioned medium+/−GM-CSF-neutralizing antibodies (FIG. 27D) or by human monocytes pretreated as indicated (FIG. 27E). (FIG. 27F) LMP-bearing mice treated with mannan (12.5 mg/kg i.v. q2d×2 wk) and the indicated anibodies (10 mg/kg i.p. q2d). (FIG. 27G) Heatmap depicting correlations between expression of Dectin-2 and the indicated genes in human cancer tissues. Gene expression data were obtained from TCGA and analyzed to obtain Spearman's correlation coefficients. **, p<0.01; ****, p<0.0001 by Student's t-test (B) or two-way ANOVA with post hoc Tukey's (F) test.

CCCCc1nc2c(N)nc3ccccc3c2n1CCCCN [T785, 1-(4-aminobutyl)-2-butyl-1H-imidazo[4,5-c]quinolin-4-amine]
TAM stimulation [1]: did not

O=C1N[C@@H]2[C@@H](O)[C@@H](O)[C@H](O)[C@@H](CO)N2C1=O [kifunensine]
high-mannose glycans on the cell surface [2]: sharp increase in high-mannose glycans on the cell surface | TAM activation by treated tumor cells (cytokine production, tumor cell uptake) [3]: activated tumor-associated myeloid cells (TAM cells) | T cell infiltration into tumors [4]: led to T cell infiltration into tumors | high-mannose glycan display by tumor cells in vivo [4]: increased high-mannose glycan display by tumor cells

GM-CSF: granulocyte-macrophage colony-stimulating factor
Dectin-2 expression ([5]; mouse monocytes, 18 hr): drives Dectin-2 expression | Dectin-2 expression ([5]; murine monocytes, GM-CSF 50 ng/mL, 24 hr): induced Dectin-2 expression | Dectin-2 expression ([6]; 18 hr): drives Dectin-2 expression | Dectin-2 expression ([6]; GM-CSF 50 ng/mL, 24 hr): induced Dectin-2 expression | tumor sensitivity to Dectin-2 stimuli (tumor volume) [7]: sensitized tumors to Dectin-2 stimuli | sensitivity to Dectin-2 stimuli (TNFα production) [8]: sensitizes TAMs to Dectin-2 stimuli
